Assay results from article PMC12543283, “TastepepAI: An artificial intelligence platform for taste peptide de novo design” (PLOS Computational Biology, 2025).
Ends that are not written are not given here.

Legend:
[1] = system: human umbilical vein endothelial cells (HUVEC)
[2] = Electronic tongue analysis (Taste-Sensing System SA 402B); parameters: unit not given here; settings: reference solution 30 mM KCl + 0.3 mM tartaric acid as baseline, first measurement excluded; for Umami: sensor AAE; for Umami / Bitter / Sweet: detection threshold 0, room temperature; for Umami / Bitter / Sour / Salty: four replicates; for Sour: detection threshold -13, room temperature; for Salty: detection threshold -6, room temperature; for Sweet: measured five times
Method in brief: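 Samples were tested at 0.1 and 1.0 mg/mL on an SA 402B e-tongue fitted with sourness, saltiness, bitterness, sweetness and umami sensors, with 30 mM KCl/0.3 mM tartaric acid as reference and baseline. Thresholds were −13 for sour, −6 for salty and 0 for the rest. Runs at room temperature: four replicates, five for sweetness, first reading discarded.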

[3] = system: human embryonic kidney cells (HEK293T)
[4] = system: human pancreatic ductal epithelial cells (HPNE)
[5] = system: human bronchial epithelial cells (BEAS-2B)

Substance | Average cell viability, HUVEC [1] | Cell viability, HUVEC, Data1 [1] | Cell viability, HUVEC, Data2 [1] | Cell viability, HUVEC, Data3 [1] | Umami ([2]; peptide 0.1 mg/mL) | Umami ([2]; peptide 1 mg/mL) | Bitter ([2]; sensor C00, peptide 0.1 mg/mL) | Bitter ([2]; sensor C00, peptide 1 mg/mL) | Sour ([2]; sensor CA0, peptide 0.1 mg/mL) | Sour ([2]; sensor CA0, peptide 1 mg/mL) | Salty ([2]; sensor CT0, peptide 0.1 mg/mL) | Salty ([2]; sensor CT0, peptide 1 mg/mL) | Sweet ([2]; sensor GL1, peptide 0.1 mg/mL) | Sweet ([2]; sensor GL1, peptide 1 mg/mL) | Average cell viability, HEK293T [3] | Cell viability, HEK293T, Data1 [3] | Cell viability, HEK293T, Data2 [3] | Cell viability, HEK293T, Data3 [3] | Average cell viability, HPNE [4] | Cell viability, HPNE, Data1 [4] | also measured
FEGDQDA [TaPep18] | 104.36 | 97.71 | 114.64 | 100.75 | 1.84 | -5.33 | 6.92 | 3.77 | -3.88 | 13.35 | -22.88 | 7.99 | 5.97 | -5.91 | 103.66 | 104.57 | 105.99 | 100.41 | 102.53 | 116.21 | Cell viability, HPNE, Data2 [4]: 89.05; Cell viability, HPNE, Data3 [4]: 102.33; Average cell viability, BEAS-2B [5]: 104.49; Cell viability, BEAS-2B, Data1 [5]: 109.67; Cell viability, BEAS-2B, Data2 [5]: 103.49; Cell viability, BEAS-2B, Data3 [5]: 100.30
FEGPE [TaPep62] | 108.97 | 109.69 | 105.38 | 111.84 | 1.43 | -4.77 | 7.43 | 3.70 | -2.87 | 11.86 | -20.91 | 8.50 | 6.38 | -4.13 | 100.16 | 97.95 | 102.21 | 100.32 | 104.06 | 108.32 | Cell viability, HPNE, Data2 [4]: 92.35; Cell viability, HPNE, Data3 [4]: 111.51; Average cell viability, BEAS-2B [5]: 106.55; Cell viability, BEAS-2B, Data1 [5]: 112.26; Cell viability, BEAS-2B, Data2 [5]: 103.59; Cell viability, BEAS-2B, Data3 [5]: 103.79
FNGVE [TaPep61] | 99.47 | 89.49 | 104.82 | 104.10 | 3.14 | -2.71 | 6.59 | 3.33 | -7.21 | 6.60 | -23.88 | 3.55 | 8.89 | -2.71 | 98.80 | 99.65 | 96.91 | 99.84 | 94.34 | 84.66 | Cell viability, HPNE, Data2 [4]: 82.36; Cell viability, HPNE, Data3 [4]: 116.01; Average cell viability, BEAS-2B [5]: 99.57; Cell viability, BEAS-2B, Data1 [5]: 95.41; Cell viability, BEAS-2B, Data2 [5]: 109.57; Cell viability, BEAS-2B, Data3 [5]: 93.72
FPEQQD [TaPep16] | 101.44 | 102.74 | 107.69 | 93.88 | 1.15 | -5.22 | 7.29 | 3.65 | -2.22 | 12.97 | -21.97 | 7.92 | 4.77 | -5.75 | 100.13 | 105.99 | 97.00 | 97.38 | 104.83 | 100.13 | Cell viability, HPNE, Data2 [4]: 113.61; Cell viability, HPNE, Data3 [4]: 100.73; Average cell viability, BEAS-2B [5]: 95.65; Cell viability, BEAS-2B, Data1 [5]: 98.50; Cell viability, BEAS-2B, Data2 [5]: 96.11; Cell viability, BEAS-2B, Data3 [5]: 92.32
FTEELE [TaPep32] | 98.11 | 111.20 | 89.81 | 93.32 | 1.89 | -4.56 | 7.51 | 2.80 | -3.82 | 11.60 | -20.95 | 9.59 | 8.60 | -6.23 | 100.73 | 105.14 | 99.56 | 97.48 | 103.23 | 117.80 | Cell viability, HPNE, Data2 [4]: 110.72; Cell viability, HPNE, Data3 [4]: 81.16; Average cell viability, BEAS-2B [5]: 106.88; Cell viability, BEAS-2B, Data1 [5]: 104.99; Cell viability, BEAS-2B, Data2 [5]: 104.59; Cell viability, BEAS-2B, Data3 [5]: 111.07
HGGDDLG [TaPep28] | 104.66 | 105.77 | 106.73 | 101.46 | 1.08 | -5.39 | 7.58 | 4.00 | -2.05 | 13.70 | -21.08 | 11.23 | 3.25 | -6.08 | 97.67 | 96.62 | 99.75 | 96.62 | 100.10 | 100.63 | Cell viability, HPNE, Data2 [4]: 102.04; Cell viability, HPNE, Data3 [4]: 97.63; Average cell viability, BEAS-2B [5]: 108.84; Cell viability, BEAS-2B, Data1 [5]: 111.86; Cell viability, BEAS-2B, Data2 [5]: 106.08; Cell viability, BEAS-2B, Data3 [5]: 108.57
HIDELDE [TaPep22] | 101.94 | 90.69 | 106.97 | 108.17 | 2.56 | -3.68 | 6.91 | 3.37 | -5.65 | 9.43 | -22.87 | 7.21 | 7.18 | -4.86 | 98.23 | 106.09 | 94.35 | 94.26 | 95.67 | 103.83 | Cell viability, HPNE, Data2 [4]: 84.66; Cell viability, HPNE, Data3 [4]: 98.54; Average cell viability, BEAS-2B [5]: 111.67; Cell viability, BEAS-2B, Data1 [5]: 106.78; Cell viability, BEAS-2B, Data2 [5]: 113.26; Cell viability, BEAS-2B, Data3 [5]: 114.96
IAVPHEP [TaPep47] | 101.12 | 101.62 | 112.48 | 89.25 | 2.32 | -4.54 | 8.00 | 3.37 | -4.89 | 10.97 | -19.15 | 9.73 | 6.95 | -5.60 | 100.09 | 104.67 | 100.41 | 95.21 | 99.80 | 107.02 | Cell viability, HPNE, Data2 [4]: 87.25; Cell viability, HPNE, Data3 [4]: 105.12; Average cell viability, BEAS-2B [5]: 106.38; Cell viability, BEAS-2B, Data1 [5]: 109.97; Cell viability, BEAS-2B, Data2 [5]: 99.00; Cell viability, BEAS-2B, Data3 [5]: 110.17
IFGDD [TaPep57] | 100.24 | 106.57 | 103.38 | 90.77 | 1.71 | -5.02 | 7.29 | 3.08 | -3.54 | 12.57 | -21.64 | 9.94 | 6.75 | -7.93 | 99.72 | 100.22 | 96.06 | 102.87 | 103.13 | 83.76 | Cell viability, HPNE, Data2 [4]: 112.81; Cell viability, HPNE, Data3 [4]: 112.81; Average cell viability, BEAS-2B [5]: 100.86; Cell viability, BEAS-2B, Data1 [5]: 99.70; Cell viability, BEAS-2B, Data2 [5]: 103.89; Cell viability, BEAS-2B, Data3 [5]: 99.00
